From patent US10716778B2, “Use of compounds that are able to increase the serum IGF-1 level for the preparation of a therapeutical composition for treatment of various disease states associated with a reduced IGF-1 serum level in humans and animals” (VEIJLEN N.V., priority 2003, dated 2020)
“And” between values parts separate entries of the source, which are not always exact repeats. Identical values can stand only once.

Legend:
IGF-1 [1] = assay: IGF-1 concentration in problem piglets (group P) with history of PRRSV treated with IAA (Example 9); type: in vivo, Belgian Land Race piglets; conditions: for IGF-1: group P piglets, acetic acid
Protocol: (§1) The piglets were weaned at four weeks and relocated, twelve piglets per pen. IGF-1 levels from three different groups were tested at the age of five weeks.
(§2) These are the pigs with the big problems. They are looking poor, have a low weight, bad color and some of them have Staphylococcus infections. It was the firm belief of the farmer and the veterinarian that these piglets would not reach the end of the fattening cycle. Blood samples were taken at random from five of the twelve piglets.
(§3) After seeing the low IGF-1 levels in group P, it was decided to give them the same treatment as in humans with CFS. The average weight of the piglets would have been around seven kilos at five weeks of age. They were treated with 125 mg of the composition comprising 5 mg IAA and 120 mg NaCl and WPC 70 for ten days. The product was fed in a trough, mixed in liquid feed. All the piglets ate from the same trough.
After ten days of treatment, random blood samples were taken from the different groups. A code was added for the size of the animals (K=small; N=normal; Z=heavy).
At random, IGF-1 concentrations of five piglets of this group were measured.
Three weeks later, blood samples were again taken, but only from the problem group.

poor-growing piglets = assay: Weight gain and appearance of poor-growing piglets treated with IAA (Example 7); type: in vivo, piglets (Dutch Landrace)
Description: The trial was done in a well-managed farm with 1000 sows of the Dutch Landrace. Although the farm is well run, the technical performance is not optimal. There were latent problems with mortality and with growth rates of the piglets. There are too many poor-growing piglets, without fully understanding the technical or veterinary reason. There is no clear pathology to be seen on the farm.
The farmer selected the poor-growing piglets for this weaning period. The piglets were weaned for two days at the start of the trial. There were three groups: the normal well-growing piglets, which served as a control group; the B group with 78 poor growers that are treated with 12.5 mg/kg/LW (Life Weight) IAA; and the X group with 52 poor growers that are not treated.
Blood samples for IGF-1 measuring were taken from each group at the beginning of the trial and at the end of the trial. Two pens (13 piglets) of the B and X groups were weighed at the beginning and at the end of the trial. The active ingredient IAA was mixed in dextrose. […] The B group received the treatment five days after the first IGF-1 measuring.

type 2 diabetic patients = assay: Well-being of type 2 diabetic patients after treatment (Example 4); type: in vivo, human; conditions: type 2 diabetes patients
Description: Five male type 2 diabetic patients took part in the study. They were all very difficult to regulate. When the study started, the average HbA1c was to be approximately 9.0%. The patients had no other clinical problems. In addition, the IgF-BP3/IgF-1 ratio had to be over 10. The age of the subjects were between 45 years and 75 years with an average of 58. The period of the investigation was 6 months. At the start of the study, after 2 month, 4 months and at the end at 6 months, blood was taken. The following parameters were checked: IGF-1 and IGF-PB-3. Also, at the start, safety parameters (liver tests, hematology) were determined. Every 8 weeks, HbA1c was determined.

IGF-1 [2] = assay: IgF-1 level in athletes with intensive training taking IAA or placebo (Example 6); type: in vivo, human; conditions: group A
Protocol: (§4) Twenty athletes entered the study. Other medication was excluded from the research. The period of the treatment was 12 weeks. They were not allowed to take any other medication or food supplements. They continued their level of training. After 2 weeks, the training was intensified by 25%. At baseline, at the start, after 2 weeks, 4 weeks, 6 weeks, 8 weeks, 10 weeks and 12 weeks, IGF-1 and safety parameters (liver tests, hematology) were determined. The group was divided into two groups of ten athletes. Group A received IAA; group B got a placebo.
All samples from one subject were analyzed in the same run to avoid intra-assay variability. GH was assayed with a chemiluminescence kit (Nichols Institute Diagnostics, San Juan Capistrano, Calif., USA). Quantification of IGF-1 was performed using an immunoradiometric assay (IRMA) (DSL-5600 ACTIVE, DSL, Germany GmbH, Germany). Intra- and inter-assay variance was: 4.0% and 9.2% for GH; 3.0% and 1.5% for IGF-1.
The total work output of every subject was calculated with a two-way ANOVA for repeated measures and the hormone values were analyzed with the Wilcoxon test. In all cases, 1 p value of <0.05 was accepted as significant.
(§5) The following schedule was used for the supplements. 1 IAA capsule contained 10 mg IAA, 100 mg NaCl, 140 mg WPC 70. One Glutamine capsule contained 500 mg glutamine. The amino acids that were taken are as described in Table 1.

athletes = assay: Performance and recovery of athletes (Example 6); type: in vivo, human; conditions: group that received IAA; 12 weeks intensive training; placebo performances decreased
Protocol: as §4, §5

[3] = system: piglets that had a history of PRRSV; assay: Health condition of problem piglets (group P) with history of PRRSV treated with IAA (Example 9); type: in vivo, Belgian Land Race piglets; conditions: after ten days of treatment
Protocol: as §1, §2, §3

With indole acetic acid [IAA] the IGF-1 (IGF-1 [1]; age five weeks, before treatment (baseline), random individual piglets) was 2.3 nmol/l and <0.5 nmol/l (2×) and 2.0 nmol/l and 1.8 nmol/l, the IGF-1 (IGF-1 [1]; after ten days of treatment (125 mg composition = 5 mg IAA), random individual piglets) was 0.8 nmol/l and <0.5 nmol/l (3×) and 4.2 nmol/l and the IGF-1 (IGF-1 [1]; three weeks later, treatment stopped, individual piglets) was 55.6 nmol/L and 30.0 nmol/L and 23.4 nmol/L and 65.1 nmol/L and 13.7 nmol/L and 60.1 nmol/L and 36.9 nmol/L. The “change of IGF-1 levels” value (IGF-1 [1]; group P, after ten days of treatment) was “did not rise”, the “appearance of piglets in group B versus group X” value (poor-growing piglets; after one week) was “looking better” and the “weight of poor-growing animals” value (poor-growing piglets; animal experiments, summary) was “increased to normal levels”. For the same substance, the “average extra weight gain of treated group over non-treated” value (poor-growing piglets; pens that were weighed, period of 21 days) was roughly 0.5 kg, the “av. Weight gain” value (poor-growing piglets; treated pens of group B, 21 days, acetic acid) was 7.02 kg and 6.08 kg and the “Weighing 1 average” value (poor-growing piglets; treated pens of group B, beginning of the trial, average per piglet, acetic acid) was 6.62 kg and 6.77 kg. The “Weighing 1 Total” value (poor-growing piglets; treated pens of group B, beginning of the trial, total per pen, acetic acid) was 86 (n = 13) kg and 88 (n = 13) kg, the “Weighing 2 average” value (poor-growing piglets; treated pens of group B, end of the trial, average per piglet, acetic acid) was 13.64 kg and 12.85 kg and the “Weighing 2 Total” value (poor-growing piglets; treated pens of group B, end of the trial, total per pen, acetic acid) was 150 (n = 11) kg and 167 (n = 13) kg. For the same substance, the “average extra growth of pen B 3 L(eft) over neighbors from pen X 4 L(eft)” value (poor-growing piglets; treated vs non-treated pen) was 850 grams, the “how the patients felt after the treatment” value (type 2 diabetic patients) was “felt better” and the “increase of IgF-1 level” value (IGF-1 [2]; over a period of 8 weeks (so in the source), statistically significant) was “ca. 47.7%”. The “IgF-1 level, average test group” value (IGF-1 [2]; time point 0 (start), blood taken every 2 weeks over 12 weeks) was 27.9 nmol/L, the “IgF-1 level, average test group” value (IGF-1 [2]; time point 1) was 35.8 nmol/L and the “IgF-1 level, average test group” value (IGF-1 [2]; time point 2) was 38.9 nmol/L. The “IgF-1 level, average test group” value (IGF-1 [2]; time point 3) was 42.5 nmol/L, the “IgF-1 level, average test group” value (IGF-1 [2]; time point 4) was 41.7 nmol/L and the “IgF-1 level, average test group” value (IGF-1 [2]; time point 5) was 41.4 nmol/L. The “IgF-1 level, average test group” value (IGF-1 [2]; time point 6 (end of the study)) was 41.2 nmol/L, the “performance of athletes at the end” value (athletes) was “performed better” and the Staphylococcus infection [3] was “no piglets suffered from Staphylococcus infection anymore”. For the same substance, the “condition of the piglets” value [3] was “dramatically improved” and the survival [3] was “All twelve pigs were still alive”.
